Experimental data: patent US20080227823A1, “AMIDE DERIVATIVES AS CALCIUM CHANNEL BLOCKERS” (priority 2007, published 2008)

Tests used:
[1] = molecular target: T1, human α1I T-type channels (Homo sapiens, UniProt Q9P0X4); test: T-type calcium channel block, whole cell patch clamp in HEK cells; assay type: cell-based; conditions: mainly non-inactivated protocol
T1 construct: expressed in transfected cells; host or cells: HEK 293
Experimental: (§1) T-type calcium channel blocking activity was assayed in human embryonic kidney cells, HEK 293, stably transfected with the T-type calcium channel subunits. Briefly, cells were cultured in Dulbecco's modified eagle medium (DMEM) supplemented with 10% fetal bovine serum, 200 U/ml penicillin and 0.2 mg/ml streptomycin at 37° C. with 5% CO2. At 85% confluency cells were split with 0.25% trypsin/1 mM EDTA and plated at 10% confluency on glass coverslips. At 12 hours the medium was replaced and the cells stably transfected using a standard calcium phosphate protocol and the appropriate calcium channel cDNA's. Fresh DMEM was supplied and the cells transferred to 28° C./5% CO2. Cells were incubated for 1 to 2 days prior to whole cell recording.
(§2) Standard patch-clamp techniques were employed to identify blockers of T-type currents. Briefly, previously described HEK cell lines stably expressing human α1G, α1H and α1I T-type channels were used for all the recordings (passage #: 4-20, 37° C., 5% CO2). Whole cell patch clamp experiments were performed using an Axopatch 200B amplifier (Axon Instruments, Burlingame, Calif.) linked to a personal computer equipped with pCLAMP software. Data were analyzed using Clampfit (Axon Instruments) and SigmaPlot 4.0 (Jandel Scientific). To obtain T-type currents, plastic dishes containing semi-confluent cells were positioned on the stage of a ZEISS AXIOVERT S100 microscope after replacing the culture medium with external solution (see below). Whole-cell patches were obtained using pipettes (borosilicate glass with filament, O.D.: 1.5 mm, I.D.: 0.86 mm, 10 cm length), fabricated on a SUTTER P-97 puller with resistance values of ˜5 MΩ (see below for internal solution).
(§3) T-type currents were reliably obtained by using two voltage protocols: • (1) “non-inactivating”, and • (2) “inactivation”
(§4) In the non-inactivating protocol, the holding potential is set at −110 mV and with a pre-pulse at −100 mV for 1 second prior to the test pulse at −40 mV for 50 ms. In the inactivation protocol, the pre-pulse is at approximately −85 mV for 1 second, which inactivates about 15% of the T-type channels.
(§5) Test compounds were dissolved in external solution, 0.1-0.01% DMSO. After 10 min rest, they were applied by gravity close to the cell using a WPI microfil tubing. The “non-inactivated” pre-pulse was used to examine the resting block of a compound. The “inactivated” protocol was employed to study voltage-dependent block. However, the initial data shown below were mainly obtained using the non-inactivated protocol only. Kd values are shown for various compounds of the invention in Table 4 measured at 1 μM for the drug of interest except for compound 18 which was measured at 200 nM.

[2] = molecular target: T2, human α1H T-type channels (Homo sapiens, UniProt O95180); test: as above; assay type: cell-based; conditions: mainly non-inactivated protocol
T2 construct: expressed in transfected cells; host or cells: HEK 293
T2 sequence (O95180 whole entry): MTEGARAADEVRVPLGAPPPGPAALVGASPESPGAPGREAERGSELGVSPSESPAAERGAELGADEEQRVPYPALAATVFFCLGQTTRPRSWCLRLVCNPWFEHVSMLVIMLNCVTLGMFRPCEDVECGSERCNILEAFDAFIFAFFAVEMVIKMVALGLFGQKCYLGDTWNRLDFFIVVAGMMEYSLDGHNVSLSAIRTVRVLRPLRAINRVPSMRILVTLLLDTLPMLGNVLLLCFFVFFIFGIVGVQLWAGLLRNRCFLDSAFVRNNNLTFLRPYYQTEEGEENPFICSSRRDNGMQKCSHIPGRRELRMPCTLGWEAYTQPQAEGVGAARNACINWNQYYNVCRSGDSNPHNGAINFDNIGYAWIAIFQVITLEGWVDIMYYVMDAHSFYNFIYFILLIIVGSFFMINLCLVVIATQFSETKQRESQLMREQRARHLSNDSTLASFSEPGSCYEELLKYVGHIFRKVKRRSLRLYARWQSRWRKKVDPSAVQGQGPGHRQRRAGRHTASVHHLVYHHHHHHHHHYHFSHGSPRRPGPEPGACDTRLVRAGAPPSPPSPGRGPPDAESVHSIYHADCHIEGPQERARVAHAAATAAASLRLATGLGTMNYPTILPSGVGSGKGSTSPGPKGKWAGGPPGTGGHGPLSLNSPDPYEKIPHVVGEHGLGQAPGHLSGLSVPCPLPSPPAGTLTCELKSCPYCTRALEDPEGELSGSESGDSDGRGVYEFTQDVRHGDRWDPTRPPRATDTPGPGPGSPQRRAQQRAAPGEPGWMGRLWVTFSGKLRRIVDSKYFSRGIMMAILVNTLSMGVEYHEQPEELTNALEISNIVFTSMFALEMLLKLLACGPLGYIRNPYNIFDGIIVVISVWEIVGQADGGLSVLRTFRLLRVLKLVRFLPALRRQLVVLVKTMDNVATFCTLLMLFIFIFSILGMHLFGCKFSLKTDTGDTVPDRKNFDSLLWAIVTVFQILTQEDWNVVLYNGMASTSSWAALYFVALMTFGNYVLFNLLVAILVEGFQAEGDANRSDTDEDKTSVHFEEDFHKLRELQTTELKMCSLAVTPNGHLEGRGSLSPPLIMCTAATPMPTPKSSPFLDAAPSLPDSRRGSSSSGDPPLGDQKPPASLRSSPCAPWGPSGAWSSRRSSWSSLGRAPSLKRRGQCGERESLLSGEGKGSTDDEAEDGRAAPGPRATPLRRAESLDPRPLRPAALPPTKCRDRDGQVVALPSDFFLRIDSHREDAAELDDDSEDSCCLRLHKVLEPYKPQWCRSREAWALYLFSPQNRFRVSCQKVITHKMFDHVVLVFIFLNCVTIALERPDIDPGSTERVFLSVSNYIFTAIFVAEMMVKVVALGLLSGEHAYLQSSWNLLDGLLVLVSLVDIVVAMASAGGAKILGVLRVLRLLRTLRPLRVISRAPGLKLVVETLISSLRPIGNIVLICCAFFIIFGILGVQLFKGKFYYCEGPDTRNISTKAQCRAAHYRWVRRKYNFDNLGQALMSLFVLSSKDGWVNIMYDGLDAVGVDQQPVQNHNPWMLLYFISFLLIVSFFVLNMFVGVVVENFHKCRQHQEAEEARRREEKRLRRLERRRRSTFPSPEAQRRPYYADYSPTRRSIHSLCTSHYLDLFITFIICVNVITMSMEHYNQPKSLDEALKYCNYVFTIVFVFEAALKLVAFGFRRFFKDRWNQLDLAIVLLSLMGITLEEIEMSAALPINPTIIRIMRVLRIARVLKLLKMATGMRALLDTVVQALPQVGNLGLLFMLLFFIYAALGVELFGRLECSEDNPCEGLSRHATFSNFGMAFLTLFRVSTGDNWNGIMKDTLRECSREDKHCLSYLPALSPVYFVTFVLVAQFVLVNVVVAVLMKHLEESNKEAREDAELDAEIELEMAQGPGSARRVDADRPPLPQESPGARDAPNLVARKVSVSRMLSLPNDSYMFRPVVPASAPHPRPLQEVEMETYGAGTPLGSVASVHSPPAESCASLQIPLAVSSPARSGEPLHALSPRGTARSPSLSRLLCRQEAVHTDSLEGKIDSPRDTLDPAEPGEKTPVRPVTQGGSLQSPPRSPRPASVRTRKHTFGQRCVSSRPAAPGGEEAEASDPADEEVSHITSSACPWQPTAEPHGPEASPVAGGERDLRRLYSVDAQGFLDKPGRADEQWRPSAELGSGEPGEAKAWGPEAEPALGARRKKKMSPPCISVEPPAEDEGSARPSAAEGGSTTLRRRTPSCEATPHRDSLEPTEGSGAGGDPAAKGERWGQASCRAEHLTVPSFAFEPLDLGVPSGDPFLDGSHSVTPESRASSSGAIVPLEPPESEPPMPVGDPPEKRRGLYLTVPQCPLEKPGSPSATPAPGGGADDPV
Experimental: as §1, §2, §3, §4, §5

[3] = molecular target: T3, human α1G T-type channels (Homo sapiens, UniProt O43497); test: as above; assay type: cell-based; conditions: mainly non-inactivated protocol
T3 construct: expressed in transfected cells; host or cells: HEK 293
T3 sequence (O43497 whole entry): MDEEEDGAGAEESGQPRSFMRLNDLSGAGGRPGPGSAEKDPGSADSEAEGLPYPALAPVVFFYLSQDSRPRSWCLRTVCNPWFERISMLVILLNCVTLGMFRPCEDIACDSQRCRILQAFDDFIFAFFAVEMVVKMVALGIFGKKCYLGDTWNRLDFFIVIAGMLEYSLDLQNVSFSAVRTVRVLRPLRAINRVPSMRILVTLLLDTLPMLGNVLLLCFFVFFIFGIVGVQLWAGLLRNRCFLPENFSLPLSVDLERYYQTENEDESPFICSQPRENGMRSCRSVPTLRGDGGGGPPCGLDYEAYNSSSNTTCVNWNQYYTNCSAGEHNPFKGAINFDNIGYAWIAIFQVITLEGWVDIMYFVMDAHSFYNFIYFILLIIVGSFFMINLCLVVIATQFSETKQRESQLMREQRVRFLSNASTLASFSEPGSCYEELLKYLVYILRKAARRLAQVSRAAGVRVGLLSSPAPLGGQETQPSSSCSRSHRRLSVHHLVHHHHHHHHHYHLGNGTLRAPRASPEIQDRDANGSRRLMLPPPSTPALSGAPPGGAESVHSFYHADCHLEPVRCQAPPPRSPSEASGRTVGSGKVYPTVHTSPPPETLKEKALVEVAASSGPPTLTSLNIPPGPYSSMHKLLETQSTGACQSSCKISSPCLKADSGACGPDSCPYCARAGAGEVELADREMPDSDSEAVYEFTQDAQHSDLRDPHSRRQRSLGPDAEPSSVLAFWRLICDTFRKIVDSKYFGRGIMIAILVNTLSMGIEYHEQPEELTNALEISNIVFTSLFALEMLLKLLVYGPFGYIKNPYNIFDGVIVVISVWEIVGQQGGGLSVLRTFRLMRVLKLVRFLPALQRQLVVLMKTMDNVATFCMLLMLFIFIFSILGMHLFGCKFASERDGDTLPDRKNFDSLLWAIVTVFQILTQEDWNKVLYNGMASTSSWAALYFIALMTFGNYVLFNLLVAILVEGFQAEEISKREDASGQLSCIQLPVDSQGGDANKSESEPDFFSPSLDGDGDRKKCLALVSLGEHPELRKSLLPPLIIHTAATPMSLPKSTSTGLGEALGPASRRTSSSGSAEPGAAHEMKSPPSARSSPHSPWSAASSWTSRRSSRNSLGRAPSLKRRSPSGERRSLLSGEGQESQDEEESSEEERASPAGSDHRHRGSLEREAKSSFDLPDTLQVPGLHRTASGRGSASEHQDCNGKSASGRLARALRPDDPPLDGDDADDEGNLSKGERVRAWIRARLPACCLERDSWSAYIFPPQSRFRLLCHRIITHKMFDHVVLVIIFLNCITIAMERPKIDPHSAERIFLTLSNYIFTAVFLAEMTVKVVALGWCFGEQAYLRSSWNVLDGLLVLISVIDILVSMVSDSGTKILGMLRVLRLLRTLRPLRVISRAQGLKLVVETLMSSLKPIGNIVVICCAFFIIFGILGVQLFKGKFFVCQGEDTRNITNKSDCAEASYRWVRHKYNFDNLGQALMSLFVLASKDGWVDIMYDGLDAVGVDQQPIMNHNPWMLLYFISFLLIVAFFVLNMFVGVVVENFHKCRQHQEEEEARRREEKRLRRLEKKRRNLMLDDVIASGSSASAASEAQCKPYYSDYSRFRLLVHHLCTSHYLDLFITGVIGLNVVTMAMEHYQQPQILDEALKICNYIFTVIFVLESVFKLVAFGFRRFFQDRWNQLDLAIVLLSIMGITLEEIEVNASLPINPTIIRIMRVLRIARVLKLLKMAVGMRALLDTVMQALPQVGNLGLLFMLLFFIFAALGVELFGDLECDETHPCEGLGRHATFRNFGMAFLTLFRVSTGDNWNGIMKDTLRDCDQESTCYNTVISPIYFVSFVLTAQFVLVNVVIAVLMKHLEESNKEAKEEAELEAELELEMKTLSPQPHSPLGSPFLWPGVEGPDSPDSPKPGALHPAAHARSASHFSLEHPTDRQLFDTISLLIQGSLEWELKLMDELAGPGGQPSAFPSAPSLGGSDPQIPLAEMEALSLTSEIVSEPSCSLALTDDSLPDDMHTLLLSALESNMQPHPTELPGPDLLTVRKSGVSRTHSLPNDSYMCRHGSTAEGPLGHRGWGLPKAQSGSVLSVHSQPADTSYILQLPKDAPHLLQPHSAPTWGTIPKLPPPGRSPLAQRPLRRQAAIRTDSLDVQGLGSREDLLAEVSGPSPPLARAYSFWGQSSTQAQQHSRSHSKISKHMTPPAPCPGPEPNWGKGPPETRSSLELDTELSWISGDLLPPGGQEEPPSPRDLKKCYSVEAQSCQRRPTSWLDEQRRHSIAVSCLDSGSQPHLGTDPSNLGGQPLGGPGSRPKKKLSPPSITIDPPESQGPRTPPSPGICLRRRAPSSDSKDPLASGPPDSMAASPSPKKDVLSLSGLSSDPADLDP
Experimental: as §1, §2, §3, §4, §5

[4] = spinal nerve ligation model of neuropathic pain in rats; cited from earlier work
[5] = test system: T-type over L-type channels; conditions: cited from earlier work

| Kd ([1]; measured at 1 μM drug) | Kd ([2]; measured at 1 μM drug) | Kd ([3]; measured at 1 μM drug) | Compound | other results |
| --- | --- | --- | --- | --- |
| 280 nM | 1800 nM | 120 nM | O=C(/C=C/c1ccc(F)c(Br)c1)NC1(C(=O)NCCc2c[nH]c3ccc(F)cc23)CCCCC1 [Compound 12, (E)-1-(3-(3-bromo-4-fluorophenyl)acrylamido)-N-(2-(5-fluoro-1H-indol-3-yl)ethyl)cyclohexanecarboxamide] |  |
| 390 nM | 1790 nM | 140 nM | O=C(/C=C/c1ccc(F)c(Br)c1)NC1(C(=O)NCCc2c[nH]c3ccc(F)cc23)CCCC1 [Compound 13, (E)-1-(3-(3-bromo-4-fluorophenyl)acrylamido)-N-(2-(5-fluoro-1H-indol-3-yl)ethyl)cyclopentanecarboxamide] |  |
| 460 nM | 12000 nM | 290 nM | O=C(/C=C/c1ccc(F)c(Br)c1)NC1(C(=O)NCCc2c[nH]c3ccc(F)cc23)CC1 [Compound 14, (E)-1-(3-(3-bromo-4-fluorophenyl)acrylamido)-N-(2-(5-fluoro-1H-indol-3-yl)ethyl)cyclopropanecarboxamide] |  |
| 330 nM | 490 nM | 100 nM | CN1CCC(NC(=O)/C=C/c2ccc(F)c(Br)c2)(C(=O)NCCc2c[nH]c3ccc(F)cc23)CC1 [Compound 22] |  |
| 870 nM |  | 790 nM | COC(=O)N1CCC(NC(=O)/C=C/c2ccc(F)c(Br)c2)(C(=O)NCCc2c[nH]c3ccc(F)cc23)CC1 [Compound 23, (E)-methyl 4-(3-(3-bromo-4-fluorophenyl)acrylamido)-4-(2-(5-fluoro-1H-indol-3-yl)ethylcarbamoyl)piperidine-1-carboxylate] |  |
| 440 nM | 1450 nM | 180 nM | NCC(=O)N1CCC(NC(=O)/C=C/c2ccc(F)c(Br)c2)(C(=O)NCCc2c[nH]c3ccc(F)cc23)CC1 [Compound 24, (E)-1-(2-aminoacetyl)-4-(3-(3-bromo-4-fluorophenyl)acrylamido)-N-(2-(5-fluoro-1H-indol-3-yl)ethyl)piperidine-4-carboxamide] |  |
| 210 nM | 840 nM | 150 nM | O=C(/C=C/c1ccc(F)c(Br)c1)NC1(C(=O)NCCc2c[nH]c3ccc(F)cc23)CCN(C(=O)C(F)(F)F)CC1 [Compound 27, (E)-4-(3-(3-bromo-4-fluorophenyl)acrylamido)-N-(2-(5-fluoro-1H-indol-3-yl)ethyl)-1-(2,2,2-trifluoroacetyl) piperidine-4-carboxamide] |  |

More lines, now with the values behind:

| Compound | Kd ([1]; measured at 1 μM drug) | Kd ([2]; measured at 1 μM drug) | Kd ([3]; measured at 1 μM drug) | other results |
| --- | --- | --- | --- | --- |
| O=C(/C=C/c1ccc(F)c(Br)c1)NC1(C(=O)NCCc2c[nH]c3ccc(F)cc23)CCNCC1 [Compound 1] | 180 nM | 470 nM | 220 nM |  |
| O=C(/C=C/c1ccc(F)c(Br)c1)NC1(C(=O)NCCc2c[nH]c3ccccc23)CCNCC1 [Compound 2, (E)-N-(2-(1H-indol-3-yl)ethyl)-4-(3-(3-bromo-4-fluorophenyl)acrylamido)piperidine-4-carboxamide] | 30 nM | 410 nM | 30 nM |  |
| O=C(/C=C/c1ccc(F)c(F)c1)NC1(C(=O)NCCc2c[nH]c3ccc(F)cc23)CCNCC1 [Compound 7, (E)-4-(3-(3,4-difluorophenyl)acrylamido)-N-(2-(5-fluoro-1H-indol-3-yl)ethyl)piperidine-4-carboxamide] | 110 nM | 137000 nM | 130 nM |  |
| O=C(/C=C/c1ccc(F)c(Br)c1)N[C@H](C(=O)NCCc1c[nH]c2ccc(F)cc12)c1ccccc1 [Compound 17, (S,E)-3-(3-bromo-4-fluorophenyl)-N-(2-(2-(5-fluoro-1H-indol-3-yl)ethylamino)-2-oxo-1-phenylethyl)acrylamide] | 170 nM | 940 nM | 100 nM |  |
| O=C(/C=C/c1ccc(F)c(Br)c1)N[C@@H](C(=O)NCCc1c[nH]c2ccc(F)cc12)c1ccccc1 [Compound 18, (R,E)-3-(3-bromo-4-fluorophenyl)-N-(2-(2-(5-fluoro-1H-indol-3-yl)ethylamino)-2-oxo-1-phenylethyl)acrylamide] |  |  |  | Kd ([1]; measured at 200 nM drug): 380 nM; Kd ([2]; measured at 200 nM drug): 690 nM; Kd ([3]; measured at 200 nM drug): 70 nM |
| O=C(/C=C/c1ccc(F)cc1)NC1(C(=O)Nc2cc(C(F)(F)F)cc(C(F)(F)F)c2)CCNCC1 [Compound 32, (E)-N-(3,5-bis(trifluoromethyl)phenyl)-4-(3-(4-fluorophenyl)acrylamido)piperidine-4-carboxamide] | 50 nM | 420 nM | 50 nM |  |
| COCC(=O)O[C@]1(CCN(C)CCCc2nc3ccccc3[nH]2)CCc2cc(F)ccc2[C@@H]1C(C)C [Mibefradil] |  |  |  | anti-hyperalgesic activity [4]: anti-hyperalgesic activity; selective for T-type over L-type channels [5]: 10-30 fold |
| CCC1(C)CC(=O)NC1=O (centres unmarked) [ethosuximide] |  |  |  | anti-hyperalgesic activity [4]: anti-hyperalgesic activity |
